Test results reported in patent US20120196918A1, “PREVENTING ISLET INFLAMMATION AND DYSFUNCTION AND MAINTAINING PROPER GLUCOSE LEVELS BY CONTROLLING eIF5A AND ITS HYPUSINATION” (priority 2009, published 2012).

Experiments:
eIF5A [1] = assay: eIF5A and eIF5A-Hyp levels in islets isolated from siRNA-injected mice (immunoblot, 3H-spermidine); assay type: in vivo, mouse; conditions: si-eIF5A i.p. for three days
Description: To clarify this, islets were isolated from siRNA-injected mice and their function assessed in vitro. […] In order to further characterize this improvement in islet glucose responsiveness, glucose-stimulated Ca2+ mobilization (GSCa) studies were also performed. GSCa is a measure of islet glucose sensitivity that captures the dynamics of the islet glucose response, which is similar to GSIS (31). The GSCa, as measured by the change in fura-2 AM fluorescence ratio after glucose stimulation, was increased in si-eIF5A-treated islets compared to controls, reflecting the functional improvement seen in GSIS (FIG. 3D). This improved GSCa relative to controls persisted 48 and 72 hours post-isolation (data not shown). […]
Immunoblot and nitrite and iNOS assays: Whole cell extracts were resolved by electrophoresis on a 4-20% SDS-polyacrylamide gel, followed by immunoblot using anti-eIF5A1, anti-eIF5A2, anti-iNOS, anti-GFP, or anti-actin primary antibodies and fluorophore-labeled secondary antibodies. Immunoblots were visualized using the Li-Cor® Odyssey® system (Li-Cor Biosciences) and quantitated by scanning fluorometry using Odyssey Imaging v. […] Nitrite was quantitated by measuring nitric oxide-derived nitrite from INS-1 cell culture medium using the Griess reagent (Promega) according to the manufacturer's recommendations. iNOS activity was measured using a commercially available kit (Cayman). […]

INS-1 cells [2] = assay: Live/dead two-colour fluorescence cytometry of INS-1 cells; assay type: cell-based, rat
Description: (§1) Because GC7 is known to be inactivated by the action amine oxidases, which are abundant in serum, typical studies with GC7 in the literature have used aminoguanidine to inhibit amine oxidases (16). […] To rule out possible adverse effects of GC7 on cell viability, quantitative 2 color fluorescence analysis of live (calcein-AM-positive) and dead (ethidium homodimer-1-positive) cells were performed using fluorescence cytometry.
(§2) For flow cytometry studies, INS-1 cells (serum starved or pretreated with GC7 as indicated in the figures) were stained with calcein-AM and ethidium homodimer 1 (Live/Dead® kit, Invitrogen) for 30 minutes, and 30,000 cells/sample were analyzed for green (living cells) and red (dead cells) fluorescence using a FACS Calibur (BD bioscience) instrument. For cell cycle analysis, 10^6 cells were washed in PBS and fixed in ice-cold 70% ethanol for 1 hour. After washing in PBS, cells were re-suspended in Guava cell cycle reagent (Millipore) and incubated at room temperature for 30 minutes. Intercalation of propidium iodide into cellular DNA was quantitated using a FACS Calibur instrument and the data analyzed for cell cycle status using Modfit software.

eIF5A [3] = assay: eIF5A nuclear-to-cytoplasmic translocation in INS-1 cells (immunofluorescence); assay type: cell-based, rat; conditions: pretreatment, then cytokines 4 h
Description: Given the striking retention of Nos2 transcripts in the absence of eIF5A-Hyp, it was of interest to determine whether the intracellular distribution of eIF5A accounts for its effect on Nos2 nucleo-cytoplasmic shuttling. Immunofluorescence of eIF5A in fixed INS-1 cells, were thus performed. […] Upon treatment of cells with cytokines, there was a shift in the eIF5A distribution pattern from the nucleus to the cytoplasm.
Cytokine and inhibitor incubation studies: For cytokine incubation assays, a 1000× cocktail of cytokines containing 5 μg/ml IL1β, 10 μg/ml TNFα, and 100 μg/ml IFNγ (all prepared in 0.1% BSA in Tris-buffered saline) was applied at 1× final concentration to groups of 50 islets or 1×10^6 INS-1 (832/13) cells for a total of 4 h at 37° C. For GC7 incubation studies, GC7 was prepared at a stock concentration of 125 mM in 10 mM acetic acid and applied to cultures of 50 islets or 1×10^6 INS-1 cells to obtain the final concentrations indicted in the figures. […]
Immunofluorescence: Immunofluorescence of INS-1 cells proceeded essentially as described previously (71), using primary antibodies to eIF5A1 and secondary anti-mouse Alexa-488-conjugated antibody (Invitrogen), or by direct visualization of GFP fusion proteins at 488 nm. […] Quantitation of cytoplasic-to-nuclear ratios of eIF5A staining was performed using Axio-Vision Software, v. […]

INS-1 cells [4] = assay: Cell cycle analysis of INS-1 cells (propidium iodide cytometry); assay type: cell-based
Description: as §1, §2

| Compound | reduction of eIF5A in islets (eIF5A [1]) | percentage of dead cells (INS-1 cells [2]; 125 μM GC7, 3 days exposure) | percentage of dead INS-1 cells (INS-1 cells [2]; GC7 0 to 125 μM, overnight exposure, unaffected by concentration) | cytokine-induced translocation of eIF5A (eIF5A [3]) | cell cycle progression (INS-1 cells [4]; 3 days GC7 exposure) | cell cycle progression (G1-S) (INS-1 cells [4]; overnight GC7, any concentration) |
| --- | --- | --- | --- | --- | --- | --- |
| 5′-AACGGAAUGACUUCCAGCUGA-3′ (siSTABLE modification, further chemistry not given here) [si-eIF5A] | ~50% |  |  |  |  |  |
| NCCCCCCCN=C(N)N [GC7] |  | 70% | 4-5% | failed to induce the nuclear to cytoplasmic translocation of eIF5A | cell cycle block was clearly apparent | no significant effect on cell cycle progression |
